Reference: ChEMBL document CHEMBL1143738, “Inhibition of S. aureus alpha-hemolysin and B. anthracis lethal toxin by beta-cyclodextrin derivatives” (Bioorg Med Chem, 2007)
Calls of active or inactive are those of the source. No cut-off for these calls is given here.

Legend:
RAW264.7 [1] = assay: Toxicity against mouse RAW264.7 cells upto 100 uM; assay type: cell-based
[2] = Toxicity against mouse RAW264.7 cells; assay type: cell-based
RAW264.7 [3] = assay: Inhibition of Bacillus anthracis lethal toxin-induced cytotoxicity in mouse RAW264.7 cells; assay type: functional, cell-based
Erythrocyte [4] = assay: Inhibition of Staphylococcus aureus alpha-hemolysin-induced cytotoxicity against rabbit RBC; assay type: functional, cell-based; conditions: Oryctolagus cuniculus
RAW264.7 [5] = assay: Protection against Bacillus anthracis lethal toxin-induced cell death in mouse RAW264.7cells assessed as cell viability in MTS colorimetric assay; assay type: functional, cell-based
Erythrocyte [6] = assay: Protection against Staphylococcus aureus alpha-hemolysin-induced cell death in rabbit RBC assessed as cell viability in MTS colorimetric assay; assay type: functional, cell-based; conditions: Oryctolagus cuniculus
[7] = molecular target: Protective antigen (Bacillus anthracis) (UniProt P13423); assay: Inhibition of Bacillus anthracis protective antigen 63 reconstituted in diphytanoylphosphatidylcholine lipid membranes assessed as inhibition of channel conductance at 5 uM
Chain of Protective antigen (Bacillus anthracis) (P13423 whole entry): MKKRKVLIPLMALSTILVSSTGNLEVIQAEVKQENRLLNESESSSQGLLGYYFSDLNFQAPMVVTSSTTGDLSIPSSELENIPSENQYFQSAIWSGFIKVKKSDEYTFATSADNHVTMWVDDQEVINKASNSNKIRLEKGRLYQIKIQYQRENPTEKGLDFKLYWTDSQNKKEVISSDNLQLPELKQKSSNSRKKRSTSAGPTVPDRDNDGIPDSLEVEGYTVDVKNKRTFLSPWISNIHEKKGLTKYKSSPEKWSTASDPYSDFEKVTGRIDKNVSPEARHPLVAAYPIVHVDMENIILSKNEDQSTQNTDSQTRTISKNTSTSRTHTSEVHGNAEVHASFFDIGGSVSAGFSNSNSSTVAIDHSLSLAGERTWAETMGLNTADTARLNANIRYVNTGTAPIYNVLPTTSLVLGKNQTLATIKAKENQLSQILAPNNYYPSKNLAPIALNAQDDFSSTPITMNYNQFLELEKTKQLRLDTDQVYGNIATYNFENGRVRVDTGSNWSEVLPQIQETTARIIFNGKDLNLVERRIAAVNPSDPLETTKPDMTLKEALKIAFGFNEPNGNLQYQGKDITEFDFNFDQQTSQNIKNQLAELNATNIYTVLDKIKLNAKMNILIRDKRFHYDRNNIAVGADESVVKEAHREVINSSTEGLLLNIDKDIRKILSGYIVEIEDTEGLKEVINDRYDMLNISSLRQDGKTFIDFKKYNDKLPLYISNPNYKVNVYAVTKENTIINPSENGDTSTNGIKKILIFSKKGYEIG

[8] = molecular target: T1, Alpha-hemolysin (Staphylococcus aureus) (UniProt P09616); assay: Inhibition of Staphylococcus aureus alpha-hemolysin reconstituted in diphytanoylphosphatidylcholine lipid membranes assessed as inhibition of channel conductance at 2 uM
T1 sequence (whole entry): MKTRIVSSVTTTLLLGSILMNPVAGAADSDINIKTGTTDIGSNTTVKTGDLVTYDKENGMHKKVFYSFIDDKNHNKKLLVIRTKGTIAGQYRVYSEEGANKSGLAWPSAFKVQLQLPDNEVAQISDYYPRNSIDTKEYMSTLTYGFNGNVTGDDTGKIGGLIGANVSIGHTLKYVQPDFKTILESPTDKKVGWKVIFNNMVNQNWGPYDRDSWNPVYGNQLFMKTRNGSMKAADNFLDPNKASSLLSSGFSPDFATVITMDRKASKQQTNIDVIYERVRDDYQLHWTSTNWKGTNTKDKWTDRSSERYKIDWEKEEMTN

Row | Structure (SMILES) | Activity (RAW264.7 [1]) | IC50 [2] [µM] | IC50 (RAW264.7 [3]) [µM] | IC50 (Erythrocyte [4]) [µM] | Activity (RAW264.7 [5]) | Activity (Erythrocyte [6]) | Activity [7] | Activity [8]
1 | CC(C)(C)OC(=O)N[C@@H](CCCN)CC(=O)NC[C@H]1O[C@@H]2O[C@H]3[C@H](O)[C@@H](O)[C@@H](O[C@H]4[C@H](O)[C@@H](O)[C@@H](O[C@H]5[C@H](O)[C@@H](O)[C@@H](O[C@H]6[C@H](O)[C@@H](O)[C@@H](O[C@H]7[C@H](O)[C@@H](O)[C@@H](O[C@H]8[C@H](O)[C@@H](O)[C@@H](O[C@H]1[C@H](O)[C@H]2O)O[C@@H]8CNC(O)[C@H](CCCN)NC(=O)OC(C)(C)C)O[C@@H]7CNC(=O)[C@H](CCCN)NC(=O)OC(C)(C)C)O[C@@H]6CNC(=O)[C@H](CCCN)NC(=O)OC(C)(C)C)O[C@@H]5CNC(=O)[C@H](CCCN)NC(=O)OC(C)(C)C)O[C@@H]4CNC(=O)[C@H](CCCN)NC(=O)OC(C)(C)C)O[C@@H]3CNC(=O)[C@H](CCCN)NC(=O)OC(C)(C)C.Cl.Cl.Cl.Cl.Cl.Cl (stereo partly drawn) | Non-toxic | 0.6 | 3.5 | 5.6 | Active | Active | Active | Active
2 | N[C@@H](CSCc1ccccc1)CC(=O)NC[C@H]1O[C@@H]2O[C@H]3[C@H](O)[C@@H](O)[C@@H](O[C@H]4[C@H](O)[C@@H](O)[C@@H](O[C@H]5[C@H](O)[C@@H](O)[C@@H](O[C@H]6[C@H](O)[C@@H](O)[C@@H](O[C@H]7[C@H](O)[C@@H](O)[C@@H](O[C@H]8[C@H](O)[C@@H](O)[C@@H](O[C@H]1[C@H](O)[C@H]2O)O[C@@H]8CNC(O)[C@@H](N)CSCc1ccccc1)O[C@@H]7CNC(=O)[C@@H](N)CSCc1ccccc1)O[C@@H]6CNC(=O)[C@@H](N)CSCc1ccccc1)O[C@@H]5CNC(=O)[C@@H](N)CSCc1ccccc1)O[C@@H]4CNC(=O)[C@@H](N)CSCc1ccccc1)O[C@@H]3CNC(=O)[C@@H](N)CSCc1ccccc1.O=C(O)C(F)(F)F.O=C(O)C(F)(F)F.O=C(O)C(F)(F)F.O=C(O)C(F)(F)F.O=C(O)C(F)(F)F.O=C(O)C(F)(F)F.O=C(O)C(F)(F)F (stereo partly drawn) | Non-toxic | 0.6 | > 25 | 10.6 | – | – | – | –
3 | Cl.Cl.Cl.Cl.Cl.Cl.Cl.N[C@@H](CO)CC(=O)NC[C@H]1O[C@@H]2O[C@H]3[C@H](O)[C@@H](O)[C@@H](O[C@H]4[C@H](O)[C@@H](O)[C@@H](O[C@H]5[C@H](O)[C@@H](O)[C@@H](O[C@H]6[C@H](O)[C@@H](O)[C@@H](O[C@H]7[C@H](O)[C@@H](O)[C@@H](O[C@H]8[C@H](O)[C@@H](O)[C@@H](O[C@H]1[C@H](O)[C@H]2O)O[C@@H]8CNC(O)[C@@H](N)CO)O[C@@H]7CNC(=O)[C@@H](N)CO)O[C@@H]6CNC(=O)[C@@H](N)CO)O[C@@H]5CNC(=O)[C@@H](N)CO)O[C@@H]4CNC(=O)[C@@H](N)CO)O[C@@H]3CNC(=O)[C@@H](N)CO (stereo partly drawn) | Non-toxic | 0.6 | > 25 | > 25 | – | – | – | –
4 | Cl.Cl.Cl.Cl.Cl.Cl.Cl.Cl.Cl.Cl.Cl.Cl.Cl.Cl.NCCC[C@H](N)CC(=O)NC[C@H]1O[C@@H]2O[C@H]3[C@H](O)[C@@H](O)[C@@H](O[C@H]4[C@H](O)[C@@H](O)[C@@H](O[C@H]5[C@H](O)[C@@H](O)[C@@H](O[C@H]6[C@H](O)[C@@H](O)[C@@H](O[C@H]7[C@H](O)[C@@H](O)[C@@H](O[C@H]8[C@H](O)[C@@H](O)[C@@H](O[C@H]1[C@H](O)[C@H]2O)O[C@@H]8CNC(O)[C@@H](N)CCCN)O[C@@H]7CNC(=O)[C@@H](N)CCCN)O[C@@H]6CNC(=O)[C@@H](N)CCCN)O[C@@H]5CNC(=O)[C@@H](N)CCCN)O[C@@H]4CNC(=O)[C@@H](N)CCCN)O[C@@H]3CNC(=O)[C@@H](N)CCCN (stereo partly drawn) | Non-toxic | 0.6 | > 25 | > 25 | – | – | – | –
5 | N[C@@H](COCc1ccccc1)CC(=O)NC[C@H]1O[C@@H]2O[C@H]3[C@H](O)[C@@H](O)[C@@H](O[C@H]4[C@H](O)[C@@H](O)[C@@H](O[C@H]5[C@H](O)[C@@H](O)[C@@H](O[C@H]6[C@H](O)[C@@H](O)[C@@H](O[C@H]7[C@H](O)[C@@H](O)[C@@H](O[C@H]8[C@H](O)[C@@H](O)[C@@H](O[C@H]1[C@H](O)[C@H]2O)O[C@@H]8CNC(O)[C@@H](N)COCc1ccccc1)O[C@@H]7CNC(=O)[C@@H](N)COCc1ccccc1)O[C@@H]6CNC(=O)[C@@H](N)COCc1ccccc1)O[C@@H]5CNC(=O)[C@@H](N)COCc1ccccc1)O[C@@H]4CNC(=O)[C@@H](N)COCc1ccccc1)O[C@@H]3CNC(=O)[C@@H](N)COCc1ccccc1.O=C(O)C(F)(F)F.O=C(O)C(F)(F)F.O=C(O)C(F)(F)F.O=C(O)C(F)(F)F.O=C(O)C(F)(F)F.O=C(O)C(F)(F)F.O=C(O)C(F)(F)F (stereo partly drawn) | Non-toxic | 0.6 | > 25 | 6.1 | – | – | – | –
6 | Cl.Cl.Cl.Cl.Cl.Cl.Cl.N[C@@H](CS)CC(=O)NC[C@H]1O[C@@H]2O[C@H]3[C@H](O)[C@@H](O)[C@@H](O[C@H]4[C@H](O)[C@@H](O)[C@@H](O[C@H]5[C@H](O)[C@@H](O)[C@@H](O[C@H]6[C@H](O)[C@@H](O)[C@@H](O[C@H]7[C@H](O)[C@@H](O)[C@@H](O[C@H]8[C@H](O)[C@@H](O)[C@@H](O[C@H]1[C@H](O)[C@H]2O)O[C@@H]8CNC(O)[C@@H](N)CS)O[C@@H]7CNC(=O)[C@@H](N)CS)O[C@@H]6CNC(=O)[C@@H](N)CS)O[C@@H]5CNC(=O)[C@@H](N)CS)O[C@@H]4CNC(=O)[C@@H](N)CS)O[C@@H]3CNC(=O)[C@@H](N)CS (stereo partly drawn) | Non-toxic | 0.6 | > 25 | > 25 | – | – | – | –
